The molecules below were run against T1, POLγA:A467T (Homo sapiens, UniProt P54098, A467T) (assay: DNA polymerization assay, POLγA:A467T mutant). Conditions: stimulation of polymerase activity, primed M13mp18 ssDNA, 37° C. 2 hours; read-out: A467T AC50.
T1 sequence (P54098 1-1239 A467T): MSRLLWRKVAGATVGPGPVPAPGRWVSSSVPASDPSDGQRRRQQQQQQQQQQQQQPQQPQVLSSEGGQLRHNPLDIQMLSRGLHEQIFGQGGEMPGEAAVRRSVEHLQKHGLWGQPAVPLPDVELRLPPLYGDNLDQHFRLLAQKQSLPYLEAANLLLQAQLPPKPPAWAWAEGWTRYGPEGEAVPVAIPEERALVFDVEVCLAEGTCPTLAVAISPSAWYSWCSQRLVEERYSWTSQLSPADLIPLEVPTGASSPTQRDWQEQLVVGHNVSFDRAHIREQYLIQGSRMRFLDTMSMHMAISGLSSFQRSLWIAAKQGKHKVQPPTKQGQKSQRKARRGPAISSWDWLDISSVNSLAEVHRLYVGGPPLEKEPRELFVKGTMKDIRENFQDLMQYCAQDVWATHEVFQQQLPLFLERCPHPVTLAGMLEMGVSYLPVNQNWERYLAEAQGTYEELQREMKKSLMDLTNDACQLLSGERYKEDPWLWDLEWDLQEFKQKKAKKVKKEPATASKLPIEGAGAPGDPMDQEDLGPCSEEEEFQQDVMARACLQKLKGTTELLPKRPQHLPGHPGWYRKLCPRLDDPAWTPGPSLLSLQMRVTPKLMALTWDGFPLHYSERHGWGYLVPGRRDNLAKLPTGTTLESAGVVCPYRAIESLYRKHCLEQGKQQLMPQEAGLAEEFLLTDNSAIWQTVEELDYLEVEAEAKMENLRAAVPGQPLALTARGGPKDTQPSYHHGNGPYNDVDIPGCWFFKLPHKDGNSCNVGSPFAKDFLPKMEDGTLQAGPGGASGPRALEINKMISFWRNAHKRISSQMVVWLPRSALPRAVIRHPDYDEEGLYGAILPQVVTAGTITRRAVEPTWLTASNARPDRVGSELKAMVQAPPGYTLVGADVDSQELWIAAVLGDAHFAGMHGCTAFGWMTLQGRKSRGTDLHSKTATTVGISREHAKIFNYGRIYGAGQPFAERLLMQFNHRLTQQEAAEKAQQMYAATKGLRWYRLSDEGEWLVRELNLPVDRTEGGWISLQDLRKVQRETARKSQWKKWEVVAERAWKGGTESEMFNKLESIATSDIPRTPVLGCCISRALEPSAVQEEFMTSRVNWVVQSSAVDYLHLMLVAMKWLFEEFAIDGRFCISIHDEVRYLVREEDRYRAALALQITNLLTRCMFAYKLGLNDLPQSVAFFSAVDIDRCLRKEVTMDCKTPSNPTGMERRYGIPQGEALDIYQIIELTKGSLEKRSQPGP
T1 sequence (Q9UHN1 1-485 partner): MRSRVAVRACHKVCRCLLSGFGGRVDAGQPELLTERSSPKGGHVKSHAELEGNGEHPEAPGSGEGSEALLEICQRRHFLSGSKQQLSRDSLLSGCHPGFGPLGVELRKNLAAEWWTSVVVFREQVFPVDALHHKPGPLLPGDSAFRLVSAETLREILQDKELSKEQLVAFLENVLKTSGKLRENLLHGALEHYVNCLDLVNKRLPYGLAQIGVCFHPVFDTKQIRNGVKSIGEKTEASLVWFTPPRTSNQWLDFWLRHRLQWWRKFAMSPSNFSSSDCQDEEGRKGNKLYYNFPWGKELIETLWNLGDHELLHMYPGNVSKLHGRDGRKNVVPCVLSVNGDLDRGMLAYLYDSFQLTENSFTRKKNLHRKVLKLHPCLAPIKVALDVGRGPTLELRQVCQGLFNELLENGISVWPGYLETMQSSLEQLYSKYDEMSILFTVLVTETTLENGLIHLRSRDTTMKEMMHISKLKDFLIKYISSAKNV
Assay type: biochemical

AC50 | Structure (SMILES)
> 100 µM | Cc1cc(S(=O)(=O)N[C@H]2CCCN(C(=O)[C@@H]3CCCN3C)C2)c(C)cc1Cl [Example 101, 4-chloro-2,5-dimethyl-N-((S)-1-(methyl-L-prolyl)piperidin-3-yl)benzenesulfonamide]
> 100 µM | Cc1cc(S(=O)(=O)Nc2cccc(C(=O)N3CCCC3)c2)c(C)cc1Cl [Example 119, 4-chloro-2,5-dimethyl-N-(3-(pyrrolidine-1-carbonyl)phenyl) benzenesulfonamide]
> 100 µM | O=S(=O)(Nc1csc(-c2ccccc2)n1)c1ccc(F)cc1F [Example 140, 2,4-difluoro-N-(2-phenylthiazol-4-yl)benzenesulfonamide]
> 100 µM | Cc1cc(S(=O)(=O)Nc2nc(-c3ccccc3)ns2)c(C)cc1Cl [Example 132, 4-chloro-2,5-dimethyl-N-(3-phenyl-1,2,4-thiadiazol-5-yl)benzenesulfonamide]
> 100 µM | Cc1cnc(-c2ccc(Cl)c(NS(=O)(=O)c3cc(C)c(Cl)cc3C)c2)s1 [Example 102, 4-chloro-N-(2-chloro-5-(5-methylthiazol-2-yl)phenyl)-2,5-dimethylbenzenesulfonamide]
